Source: patent publication US7172772B2, “Herbal composition for gastrointestinal disorders” (Council of Scientific & Industrial Research, priority 2003, dated 2007)
Values joined by “and” are separate entries in the source; they are usually repeats but may differ in a detail not shown here. Equal entries are not always repeated. Structures can show the parent of a compound that is named as a salt. Marks after values point to notes of the source that are not given here.

Assays:
[1] = system: castor oil-stimulated gastrointestinal transit in rats; assay: Small intestinal transit, charcoal meal (Table 3); type: in vivo; conditions: 0.1 mg kg^−1 IP
Procedure: Animals were divided into four groups of six rats each and each animal was given orally 1 ml of charcoal meal (5% activated charcoal suspended in 1% CMC) 60 min after an oral dose of drugs or vehicle. Group I was administered with 1% CMC (10 ml kg^−1) and animals in the other groups received various formulations. Another group received atropine sulfate (0.1 mg kg^−1, IP) as standard drug. After 30 min animals were killed by cervical dislocation and the intestine was removed without stretching and placed lengthwise on moist filter paper. The length of the intestine (pyloric sphincter to caecum) and the distance travelled by the charcoal as a percentage of that length were evaluated for each animal, and group means were compared and expressed as percentage inhibition (Lutterodt, J. Ethnopharmacol. 25, 1989, 235–247). […] Therefore the dose dependent effect of the formulation was similar to the synthetic drug atropine. But long use of atropine completely blocks the secretions it is an adverse effect.

[2] = system: human carcinoma cells of the naso-pharynx; conditions: cell culture; cited from earlier work
[3] = system: castor oil induced diarrhea in rats; assay: Castor oil induced diarrhea / defecation, total faecal matter over 4 h (Table 1); type: in vivo; conditions: 5.0 mg kg^−1 p.o.
Procedure: Groups of six mice each were placed individually in separate cages with filter papers at the bottom. Different doses of the extracts were administered orally to different groups. The non-specific antidiarrhoeal reference drug diphenoxylate HCl (5.0 mg kg^−1, p.o.) and 1% CMC ([…], p.o.) were administered to two groups and later served as controls (Melo et al, J. Pharm. Pharmacol. 40 (1988), […]). The total number of the faecal matter in each group was assessed every hour for the next 4 h. Percent reduction in the total number of faeces in the treated groups was obtained by comparison with control animals.
The method of Awouters et al. (J. Pharm. Pharmacol, 30, 1978, 41–45) as modified by Nwodo and Alumanah (J. Ethnopharmacol, 31, 1991, 395–398) was used. Briefly, rats fasted for 24 h were randomly allocated to five groups of six animals each. One group received 1% CMC (10 mL kg^−1, p.o.), other groups received orally the different dosage of drug extract. Another group given diphenoxylate HCl (5.0 mg kg^−1, p.o.) as suspension. After 60 min each animal was given with 2 ml of castor oil by orogastric cannula, and placed in a separate cage and observed for 4 h defecation. Transparent plastic dishes were placed beneath each cage and the characteristic diarrhoeal droppings were noted. The total number of the faecal matter in each group was assessed every hour for the next 4 h. […]

[4] = system: indomethacin induced acute gastric ulcers in rats; assay: Indomethacin induced acute gastric ulcers (Table 4); type: in vivo; conditions: 50 mg/kg
Procedure: To assess the efficacy of different formulations against the indomethacin induced gastric ulcer different doses (25–100 mg kg^−1, p.o.) of formulations were administered to groups of 10 mice for each dose, while one group of the same number of mice served as control and the
The results of Table 4 represents that there is a significant and dose dependent anti ulcer activity and percentage ratio ranges of protection from 27.03 to 75.38.

[5] = system: cysteamine induced duodenal ulcers in rats; assay: Cysteamine induced duodenal ulcers (Table 5); type: in vivo; conditions: 50 mg/kg
Text: The efficacy is compared with the known standard synthetic drug Ranitidine for treatment of. […] Where as the formulation F5 contains […]. indica, Cinamommum sp. and Buchanania lanzan.

In the case of CN1[C@@H]2CC[C@H]1CC(OC(=O)C(CO)c1ccccc1)C2.CN1[C@@H]2CC[C@H]1CC(OC(=O)C(CO)c1ccccc1)C2.O=S(=O)(O)O (some centres unmarked) [Atropine sulphate, atropine sulfate], the “Mean distance travelled by charcoal” value [1] is reported as 26.5 ± 2.6^b cm and the “Reduction (%)” value [1] is reported as 68.33%.

In the case of COc1cc2c3c(O)c1OCc1ccc(cc1)C[C@@H]1c4c(cc(OC)c(OC)c4Oc4ccc(cc4)CC3=NCC2)CCN1C [Cissampareine], the “inhibitory activity against human carcinoma cells of the naso-pharynx” value [2] is listed as “significant and reproducible inhibitory activity”.

For CCOC(=O)C1(c2ccccc2)CCN(CCC(C#N)(c2ccccc2)c2ccccc2)CC1 [Diphenoxylate HCl, diphenoxylate HCl], the “Total no of faecal matter” value ([3]; counted over 4 h, six rats per group) was 16 and the “% Reduction (Inhibition)” value ([3]; vs control 1% CMC) was 75.38%.

With CNC(=C[N+](=O)[O-])NCCSCc1ccc(CN(C)C)o1 [Ranitidine] the “% Curative ratio” value [4] was 82.20%, the Ulcer index [4] was 0.81 ± 0.01^b and the “% Protection” value [5] was 77% and 77.9%. For the same compound, the Ulcer incidence % [5] was 20%, the “Ulcer incidence No” value [5] was 2/10 and the “Ulcer score Total lesion area” value [5] was 1.06 ± 0.17^c mm^2.
